# Experimental data from patent publication US12030878B2 (BRISTOL-MYERS SQUIBB COMPANY, priority 2017, dated 2024).
# Experiments:
# Type in all cases: cell-based
# [1] = target: T1, human TLR9 (Homo sapiens, UniProt Q9NR96); assay: TLR9 inhibition reporter assay (HEK-Blue SEAP); details: HEK-Blue cells overexpressing human TLR9, stimulated with ODN2006 5 nM, 22 hour incubation
# T1 construct: host or cells: HEK-Blue cells
# T1 sequence (Q9NR96 26-1032): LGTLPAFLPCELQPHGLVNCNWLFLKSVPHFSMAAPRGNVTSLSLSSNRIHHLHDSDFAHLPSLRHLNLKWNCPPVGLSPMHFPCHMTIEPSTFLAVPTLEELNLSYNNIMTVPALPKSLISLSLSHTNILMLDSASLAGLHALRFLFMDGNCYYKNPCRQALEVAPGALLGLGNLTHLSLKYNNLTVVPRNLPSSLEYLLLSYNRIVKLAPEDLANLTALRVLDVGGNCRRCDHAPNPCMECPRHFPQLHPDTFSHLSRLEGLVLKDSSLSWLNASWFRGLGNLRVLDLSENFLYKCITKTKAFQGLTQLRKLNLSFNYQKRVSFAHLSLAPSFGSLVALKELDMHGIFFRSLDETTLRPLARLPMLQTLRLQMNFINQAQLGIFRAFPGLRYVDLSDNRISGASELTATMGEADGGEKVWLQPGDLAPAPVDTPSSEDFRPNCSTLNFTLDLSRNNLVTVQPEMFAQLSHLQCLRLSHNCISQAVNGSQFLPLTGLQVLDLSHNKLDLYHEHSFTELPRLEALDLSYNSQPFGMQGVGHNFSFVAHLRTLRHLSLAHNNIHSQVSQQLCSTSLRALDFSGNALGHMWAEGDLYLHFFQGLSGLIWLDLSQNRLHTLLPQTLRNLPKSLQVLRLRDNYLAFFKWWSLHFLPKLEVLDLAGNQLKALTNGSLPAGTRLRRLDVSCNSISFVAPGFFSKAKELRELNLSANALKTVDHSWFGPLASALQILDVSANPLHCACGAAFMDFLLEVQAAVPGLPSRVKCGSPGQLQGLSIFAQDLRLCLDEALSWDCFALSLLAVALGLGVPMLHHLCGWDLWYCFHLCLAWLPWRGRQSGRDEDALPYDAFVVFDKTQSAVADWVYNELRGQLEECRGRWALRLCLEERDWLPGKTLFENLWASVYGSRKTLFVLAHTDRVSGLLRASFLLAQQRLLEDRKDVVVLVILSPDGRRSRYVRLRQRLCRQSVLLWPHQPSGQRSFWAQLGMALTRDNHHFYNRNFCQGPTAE
# Procedure, shortened: (§1)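 Test compounds, final 0.05 nM–50 μM, pre-treat HEK-Blue human TLR7, TLR8 or TLR9 reporter cells before agonist addition (TLR8 R848 15.9 μM; TLR7 gardiquimod 7.5 μM; TLR9 ODN2006 5 nM). Incubation runs 22 h, 37 °C. SEAP detection gives percent inhibition against DMSO and reference-inhibitor controls.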
# [2] = target: T2, human TLR7 (Homo sapiens, UniProt Q9NYK1); assay: TLR7 inhibition reporter assay (HEK-Blue SEAP); details: HEK-Blue cells overexpressing human TLR7, stimulated with gardiquimod 7.5 μM, 22 hour incubation
# T2 construct: host or cells: HEK-Blue cells
# T2 sequence (Q9NYK1 27-1049): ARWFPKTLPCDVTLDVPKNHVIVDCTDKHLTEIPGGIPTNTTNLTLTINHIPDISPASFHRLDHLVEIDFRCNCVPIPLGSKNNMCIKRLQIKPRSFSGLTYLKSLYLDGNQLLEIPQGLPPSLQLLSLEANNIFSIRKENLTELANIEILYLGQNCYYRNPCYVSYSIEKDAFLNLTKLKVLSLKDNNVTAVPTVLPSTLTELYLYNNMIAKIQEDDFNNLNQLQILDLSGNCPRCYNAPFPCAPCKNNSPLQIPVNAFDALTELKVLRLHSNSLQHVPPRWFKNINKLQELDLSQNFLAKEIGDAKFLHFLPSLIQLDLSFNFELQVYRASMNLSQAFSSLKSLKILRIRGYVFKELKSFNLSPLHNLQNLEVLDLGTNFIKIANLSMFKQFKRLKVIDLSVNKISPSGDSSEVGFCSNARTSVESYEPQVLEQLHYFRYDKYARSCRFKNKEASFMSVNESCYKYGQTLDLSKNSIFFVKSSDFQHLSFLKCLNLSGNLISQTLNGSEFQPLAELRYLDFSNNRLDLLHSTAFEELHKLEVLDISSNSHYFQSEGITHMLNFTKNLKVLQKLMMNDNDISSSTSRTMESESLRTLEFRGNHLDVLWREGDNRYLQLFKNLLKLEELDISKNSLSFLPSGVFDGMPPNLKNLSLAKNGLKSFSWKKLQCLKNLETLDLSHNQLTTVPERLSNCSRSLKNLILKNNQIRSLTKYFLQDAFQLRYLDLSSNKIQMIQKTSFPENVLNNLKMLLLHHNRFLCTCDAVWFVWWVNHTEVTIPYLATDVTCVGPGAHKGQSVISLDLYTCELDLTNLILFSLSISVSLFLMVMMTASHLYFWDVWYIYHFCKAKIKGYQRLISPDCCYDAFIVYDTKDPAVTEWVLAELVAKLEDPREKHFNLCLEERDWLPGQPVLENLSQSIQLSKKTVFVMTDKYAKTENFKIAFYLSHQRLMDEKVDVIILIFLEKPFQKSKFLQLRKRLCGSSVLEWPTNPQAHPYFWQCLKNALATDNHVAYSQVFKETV
# Procedure, shortened: as §1
# [3] = target: T3, human TLR8 (Homo sapiens, UniProt Q9NR97); assay: TLR8 inhibition reporter assay (HEK-Blue SEAP); details: HEK-Blue cells overexpressing human TLR8, stimulated with R848 15.9 μM, 22 hour incubation
# T3 construct: host or cells: HEK-Blue cells
# T3 sequence (Q9NR97 27-1041): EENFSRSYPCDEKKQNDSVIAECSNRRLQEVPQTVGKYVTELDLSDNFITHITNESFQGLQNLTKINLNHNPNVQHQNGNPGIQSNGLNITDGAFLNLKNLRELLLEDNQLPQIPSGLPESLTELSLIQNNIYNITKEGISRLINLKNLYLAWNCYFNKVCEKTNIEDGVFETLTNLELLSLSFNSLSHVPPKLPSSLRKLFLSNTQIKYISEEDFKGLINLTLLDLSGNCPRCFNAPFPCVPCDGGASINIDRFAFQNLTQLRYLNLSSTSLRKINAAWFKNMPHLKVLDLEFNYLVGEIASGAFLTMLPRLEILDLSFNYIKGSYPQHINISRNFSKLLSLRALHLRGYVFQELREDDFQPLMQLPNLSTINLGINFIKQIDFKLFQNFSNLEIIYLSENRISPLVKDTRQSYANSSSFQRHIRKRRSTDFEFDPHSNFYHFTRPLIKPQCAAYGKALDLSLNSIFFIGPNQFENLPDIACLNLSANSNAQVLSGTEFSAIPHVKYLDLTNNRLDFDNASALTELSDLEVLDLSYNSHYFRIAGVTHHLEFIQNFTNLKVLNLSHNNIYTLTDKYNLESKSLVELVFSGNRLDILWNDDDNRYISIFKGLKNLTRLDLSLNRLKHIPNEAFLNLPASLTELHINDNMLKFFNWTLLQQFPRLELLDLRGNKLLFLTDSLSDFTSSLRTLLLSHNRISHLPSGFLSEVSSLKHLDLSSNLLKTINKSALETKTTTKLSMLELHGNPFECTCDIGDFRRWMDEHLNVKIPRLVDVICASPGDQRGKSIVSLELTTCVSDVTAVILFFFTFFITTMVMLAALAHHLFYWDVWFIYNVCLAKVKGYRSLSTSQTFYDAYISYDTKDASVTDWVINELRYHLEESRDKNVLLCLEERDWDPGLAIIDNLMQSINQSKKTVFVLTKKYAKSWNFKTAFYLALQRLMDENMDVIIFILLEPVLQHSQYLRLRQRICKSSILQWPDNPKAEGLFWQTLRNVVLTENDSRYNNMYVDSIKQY
# Procedure, shortened: as §1
Compound,IC50 [1] [nM],IC50 [2] [nM],IC50 [3] [nM]
"COCCN1CCC(COc2ccc3[nH]c(-c4ccnc(C)c4)c(C(C)C)c3c2)C1 (stereo not drawn) [Example 194, 3-isopropyl-5-((1-(2-methoxyethyl)pyrrolidin-3-yl)methoxy)-2-(2-methylpyridin-4-yl)-1H-indole]",1460,113,13.7
"Cc1cc(-c2[nH]c3ccc(OC4CCN(C5CCN(C(C)C)CC5)CC4)cc3c2C(C)C)ccn1 [Example 195, 3-isopropyl-5-((1′-isopropyl-[1,4′-bipiperidin]-4-yl)oxy)-2-(2-methylpyridin-4-yl)-1H-indole]",58,6,0.6
"Cc1cc(-c2[nH]c3ccc(OC4CCN(C(=O)CN(C)C)CC4)cc3c2C(C)C)ccn1 [Example 196, 2-(dimethylamino)-1-(4-((3-isopropyl-2-(2-methylpyridin-4-yl)-1H-indol-5-yl)oxy)piperidin-1-yl)ethan-1-one]",1420,9.9,11.8
"Cc1cc(-c2[nH]c3ccc(OC4CCN(CC(=O)O)CC4)cc3c2C(C)C)cc(C)n1 [Example 197, 2-(4-((2-(2,6-dimethylpyridin-4-yl)-3-isopropyl-1H-indol-5-yl)oxy)piperidin-1-yl)acetic acid]",25200,679,462
